Laboratory results as given in ChEMBL document CHEMBL4406832, “Discovery of novel series of 2-substituted benzo[d]oxazol-5-amine derivatives as multi-target directed ligands for the treatment of Alzheimer's disease” (Eur J Med Chem, 2019).
Calls of active or inactive are those of the source. The calls are words filed in the database; no cut-off is given here.

Tests used:
[1] = Selectivity index, ratio of IC50 for equine serum BuChE to IC50 for electric eel AChE
[2] = molecular target: T1, Cholinesterase (Equus caballus, UniProt P81908); assay: Inhibition of equine serum BuChE using butyrylthiocholine iodide as substrate preincubated for 30 mins followed by substrate addition and measured for 1 min by DTNB reagent-based spectrophotometric analysis
T1 sequence (P81908 whole entry): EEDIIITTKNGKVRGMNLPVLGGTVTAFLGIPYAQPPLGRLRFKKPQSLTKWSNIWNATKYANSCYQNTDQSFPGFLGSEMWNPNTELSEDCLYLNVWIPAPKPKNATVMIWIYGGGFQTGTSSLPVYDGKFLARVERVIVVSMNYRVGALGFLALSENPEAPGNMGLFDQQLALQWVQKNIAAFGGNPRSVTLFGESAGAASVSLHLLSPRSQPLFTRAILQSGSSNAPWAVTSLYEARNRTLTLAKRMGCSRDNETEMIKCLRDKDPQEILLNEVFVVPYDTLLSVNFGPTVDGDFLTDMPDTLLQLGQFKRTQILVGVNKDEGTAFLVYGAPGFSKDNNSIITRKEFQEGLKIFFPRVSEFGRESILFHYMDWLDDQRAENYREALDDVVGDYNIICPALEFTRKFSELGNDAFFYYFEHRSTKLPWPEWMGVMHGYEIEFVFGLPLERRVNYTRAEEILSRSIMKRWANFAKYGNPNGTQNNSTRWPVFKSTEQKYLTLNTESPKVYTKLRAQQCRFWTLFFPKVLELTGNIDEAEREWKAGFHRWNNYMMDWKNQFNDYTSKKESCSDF

[3] = Permeability of the compound in pH 7.4 PBS buffer incubated for 18 hrs by PAMPA-BBB assay
[4] = molecular target: T2, Acetylcholinesterase (Electrophorus electricus, UniProt O42275); assay: Inhibition of electric eel AChE using acetylthiocholine iodide as substrate preincubated with enzyme for 30 mins followed by substrate addition and measured for 1 min by DTNB reagent-based spectrophotometric analysis
T2 sequence (O42275 whole entry): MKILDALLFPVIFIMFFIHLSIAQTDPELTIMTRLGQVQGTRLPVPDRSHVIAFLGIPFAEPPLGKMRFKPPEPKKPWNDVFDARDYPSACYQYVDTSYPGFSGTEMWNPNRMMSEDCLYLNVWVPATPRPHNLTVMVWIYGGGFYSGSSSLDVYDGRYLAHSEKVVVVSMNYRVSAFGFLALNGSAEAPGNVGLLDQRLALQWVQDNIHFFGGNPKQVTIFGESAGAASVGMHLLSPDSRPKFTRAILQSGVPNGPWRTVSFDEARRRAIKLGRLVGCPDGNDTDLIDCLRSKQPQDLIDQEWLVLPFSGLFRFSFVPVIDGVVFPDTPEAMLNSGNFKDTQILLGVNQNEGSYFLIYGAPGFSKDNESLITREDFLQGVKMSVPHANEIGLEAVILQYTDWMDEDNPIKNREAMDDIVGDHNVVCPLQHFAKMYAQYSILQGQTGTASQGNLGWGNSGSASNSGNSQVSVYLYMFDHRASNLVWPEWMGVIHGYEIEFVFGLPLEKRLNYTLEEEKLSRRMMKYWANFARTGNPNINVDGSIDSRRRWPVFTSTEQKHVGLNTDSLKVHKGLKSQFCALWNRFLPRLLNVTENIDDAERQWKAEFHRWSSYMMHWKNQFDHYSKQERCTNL

[5] = species: Rattus norvegicus; assay: Cognitive enhancing effect in scopolamine-induced Wistar rat model of amnesia assessed as increase in spontaneous alteration pretreated for 7 days followed by scopolamine challenge and measured after 30 mins by Y-maze test; assay type: functional, organism-based
[6] = tested on: Rattus norvegicus; assay: (§1) Improvement in learning and spatial memory in icv infused amyloid beta (1 to 42)-induced Wistar rat model of Alzheimer's disease assessed as reduction in degeneration of neuron in hippocampal region at 10 mg/kg, po administered daily for 7 days starting from 7 days post surgery and measured after 6 days by H and E staining-based microscopic analysis; assay type: functional, organism-based
[7] = molecular target: T2, Acetylcholinesterase; assay: Non-competitive inhibition of electric eel AChE using varying levels of acetylthiocholine iodide as substrate measured at 2 mins interval for 10 mins by Dixon plot analysis
[8] = molecular target: Cholinesterase (Equus caballus) (UniProt P81908); assay: Non-competitive inhibition of equine serum BuChE assessed as decrease in Km at 0.5 to 1.5 uM using varying levels of butyrylthiocholine iodide as substrate measured every 2 mins for 10 mins by reciprocal Lineweaver-Burk plot analysis
Sequence of Cholinesterase (Equus caballus) (P81908 whole entry, the tested form may be a part): as the sequence (P81908 whole entry) above

[9] = molecular target: T1, Cholinesterase; assay: Non-competitive inhibition of equine serum BuChE using varying levels of butyrylthiocholine iodide as substrate measured at 2 mins interval for 10 mins by Dixon plot analysis
[10] = molecular target: Cholinesterase (Equus caballus) (UniProt P81908); assay: Non-competitive inhibition of equine serum BuChE assessed as decrease in Vmax at 0.5 to 1.5 uM using varying levels of butyrylthiocholine iodide as substrate measured every 2 mins for 10 mins by reciprocal Lineweaver-Burk plot analysis
[11] = tested on: Rattus norvegicus; assay: (§2) Improvement in learning and spatial memory in icv infused amyloid beta (1 to 42)-induced Wistar rat model of Alzheimer's disease assessed as increase in time spent in platform zone at 10 mg/kg, po administered daily for 7 days starting from 7 days post surgery and measured after 6 days by Morris water maze test; assay type: functional, organism-based
[12] = molecular target: Amyloid-beta precursor protein (Homo sapiens, UniProt P05067); assay: Inhibition of human amyloid beta (1 to 42) self-induced aggregation at 5 to 20 uM after 48 hrs by Thioflavin T based fluorometric assay
Sequence of Amyloid-beta precursor protein (P05067 whole entry): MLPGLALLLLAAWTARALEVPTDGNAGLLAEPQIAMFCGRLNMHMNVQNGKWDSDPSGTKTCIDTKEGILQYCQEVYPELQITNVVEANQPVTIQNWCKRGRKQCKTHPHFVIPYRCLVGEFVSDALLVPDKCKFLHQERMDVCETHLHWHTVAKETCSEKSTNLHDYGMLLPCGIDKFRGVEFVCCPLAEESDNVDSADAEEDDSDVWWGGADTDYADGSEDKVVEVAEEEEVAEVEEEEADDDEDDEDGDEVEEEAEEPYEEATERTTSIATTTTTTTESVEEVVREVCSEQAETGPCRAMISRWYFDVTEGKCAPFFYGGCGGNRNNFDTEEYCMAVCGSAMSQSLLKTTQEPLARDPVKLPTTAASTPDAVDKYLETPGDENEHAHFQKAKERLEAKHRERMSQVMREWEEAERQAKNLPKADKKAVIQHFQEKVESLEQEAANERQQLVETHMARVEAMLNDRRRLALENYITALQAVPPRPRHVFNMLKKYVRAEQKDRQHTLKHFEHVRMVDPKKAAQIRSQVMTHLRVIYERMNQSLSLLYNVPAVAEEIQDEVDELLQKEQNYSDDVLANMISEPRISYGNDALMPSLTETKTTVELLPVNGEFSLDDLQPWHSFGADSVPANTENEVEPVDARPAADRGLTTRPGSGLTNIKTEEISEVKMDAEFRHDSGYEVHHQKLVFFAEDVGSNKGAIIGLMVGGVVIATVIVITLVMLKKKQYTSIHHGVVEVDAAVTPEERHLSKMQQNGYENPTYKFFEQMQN

[13] = tested on: SH-SY5Y; assay: Neuroprotective activity against amyloid beta (1 to 42)-induced cytotoxicity in human SH-SY5Y cells assessed as increase in cell viability at 40 to 80 uM measured after 72 hrs by MTT assay; assay type: functional, cell-based
[14] = species: Rattus norvegicus; assay: Ex vivo inhibition of AChE in brain of scopolamine-induced Wistar rat model of amnesia pretreated for 7 days followed by scopolamine challenge and measured after 30 mins using acetylthiocholine iodide as substrate by Ellman's method; assay type: functional, organism-based
[15] = Acute toxicity in Wistar rat assessed as animal death measured for 72 hrs by OCED guideline method; settings: in vivo
[16] = molecular target: Acetylcholinesterase (Electrophorus electricus) (UniProt O42275); assay: Non-competitive inhibition of electric eel AChE assessed as decrease in Vmax at 25 to 75 nM using varying levels of acetylthiocholine iodide as substrate measured every 2 mins for 10 mins by reciprocal Lineweaver-Burk plot analysis
Sequence of Acetylcholinesterase (Electrophorus electricus) (O42275 24-633 limits assumed): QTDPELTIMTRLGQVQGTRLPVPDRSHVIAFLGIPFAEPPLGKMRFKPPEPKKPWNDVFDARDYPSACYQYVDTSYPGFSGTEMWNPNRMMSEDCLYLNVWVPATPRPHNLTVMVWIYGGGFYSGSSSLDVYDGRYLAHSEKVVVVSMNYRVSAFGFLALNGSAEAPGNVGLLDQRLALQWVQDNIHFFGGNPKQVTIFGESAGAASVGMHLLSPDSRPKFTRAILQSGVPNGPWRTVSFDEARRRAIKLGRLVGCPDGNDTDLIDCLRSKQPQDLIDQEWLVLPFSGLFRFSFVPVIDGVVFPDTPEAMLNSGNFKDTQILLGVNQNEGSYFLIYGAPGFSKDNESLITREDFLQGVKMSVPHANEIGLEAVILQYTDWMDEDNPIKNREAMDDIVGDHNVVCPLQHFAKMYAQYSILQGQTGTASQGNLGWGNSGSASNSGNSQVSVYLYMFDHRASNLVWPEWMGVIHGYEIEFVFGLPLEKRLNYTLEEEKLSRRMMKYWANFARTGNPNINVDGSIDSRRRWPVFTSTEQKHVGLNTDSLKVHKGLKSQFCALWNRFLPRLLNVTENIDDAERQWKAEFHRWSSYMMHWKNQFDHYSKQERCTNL

[17] = tested on: Rattus norvegicus; assay: as §1, with “disordered” for “degeneration of”; assay type: functional, organism-based
[18] = tested on: SH-SY5Y; assay: Neuroprotective activity against amyloid beta (1 to 42)-induced cytotoxicity in human SH-SY5Y cells assessed as increase in cell viability at 10 to 20 uM measured after 72 hrs by MTT assay; assay type: functional, cell-based
[19] = molecular target: Acetylcholinesterase (Electrophorus electricus) (UniProt O42275); assay: Non-competitive inhibition of electric eel AChE assessed as decrease in Km at 25 to 75 nM using varying levels of acetylthiocholine iodide as substrate measured every 2 mins for 10 mins by reciprocal Lineweaver-Burk plot analysis
[20] = molecular target: Acetylcholinesterase (Electrophorus electricus) (UniProt O42275); assay: Inhibition of electric eel AChE-induced amyloid beta (1 to 42) aggregation at 5 to 20 uM after 48 hrs by thioflavin T-based fluorometric assay
[21] = tested on: Rattus norvegicus; assay: as §2, with “number of” for “time spent in”, “crossing” for “zone”; assay type: functional, organism-based
[22] = tested on: Rattus norvegicus; assay: as §2, with “reduction” for “increase”, “escape latency” for “time spent in platform zone”, “daily for 5” for “after 6”; assay type: functional, organism-based
[23] = Toxicity in Wistar rat assessed as change in body weight at 300 mg/kg measured for 72 hrs; assay type: organism-based; settings: in vivo

Structure (SMILES) | Ratio IC50 [1] | IC50 [2] | Papp at 18 h [3] | IC50 [4] | other results
Nc1ccc2oc(N3CCN(c4ccc(Cl)cc4)CC3)nc2c1 | 5.6 | 11100 nM | 10.6 ×10⁻⁶ cm/s | 1960 nM | 
Nc1ccc2oc(N3CCN(C(=O)c4cccc(Cl)c4)CC3)nc2c1 | 18.9 | 4560 nM | 10.4 ×10⁻⁶ cm/s | 241 nM | 
Nc1ccc2oc(N3CCN(C(=O)c4ccccc4)CC3)nc2c1 |  | 6050 nM |  | 801 nM | 
CC(C)c1ccc(CN2CCN(c3nc4cc(N)ccc4o3)CC2)cc1 | 11.9 | 11300 nM | 11.6 ×10⁻⁶ cm/s | 943 nM | 
Nc1ccc2oc(N3CCN(c4ccccc4)CC3)nc2c1 | 8 | 16800 nM | 10.3 ×10⁻⁶ cm/s | 2090 nM | 
COc1ccc(C(=O)N2CCN(c3nc4cc(N)ccc4o3)CC2)cc1 | 26.6 | 7330 nM | 9.71 ×10⁻⁶ cm/s | 275 nM | 
Nc1ccc2oc(N3CCN(C(=O)c4ccc(Br)cc4)CC3)nc2c1 | 20.8 | 1080 nM | 10.8 ×10⁻⁶ cm/s | 52 nM | Activity [5]: Dose-dependent effect; Activity [6]: Active; Ki [7]: 30 nM; inhibition [8]: Active; Ki [9]: 860 nM; inhibition [10]: Active; Activity [11]: Active; inhibition [12]: Active; Activity [13]: Active; inhibition [14]: Dose-dependent effect; Activity [15]: Toxic; inhibition [16]: Active; Activity [17]: Active; Activity [18]: inactive; inhibition [19]: Active; inhibition [20]: Active; Activity [21]: Active; Activity [22]: Active; Activity [23]: Toxic
Nc1ccc2oc(N3CCOCC3)nc2c1 | 4.5 | 32300 nM | 7.44 ×10⁻⁶ cm/s | 7030 nM | 
Nc1ccc2oc(N3CCN(C(=O)c4ccccc4Cl)CC3)nc2c1 | 8.6 | 4860 nM | 10.3 ×10⁻⁶ cm/s | 559 nM | 
Nc1ccc2oc(N3CCN(C(=O)c4ccccc4F)CC3)nc2c1 | 24.9 | 8390 nM | 9.55 ×10⁻⁶ cm/s | 337 nM | 
COc1cc2c(cc1OC)C(=O)C(Cc1cc[n+](Cc3ccccc3)cc1Br)C2 (configuration not stated) |  |  |  | 0.36 nM | 
Nc1ccc2oc(N3CCN(c4ccc(F)cc4)CC3)nc2c1 | 4.4 | 6480 nM | 10.7 ×10⁻⁶ cm/s | 1440 nM | 
Nc1ccc2oc(N3CCN(c4ccccn4)CC3)nc2c1 | 4.5 | 15100 nM | 9.44 ×10⁻⁶ cm/s | 3310 nM | 
C#CCN(Cc1ccc2cccc(O)c2n1)C(C#N)CCC1CCN(Cc2ccccc2)CC1 (configuration not stated) |  |  |  | 29 nM | 
COc1ccccc1C(=O)N1CCN(c2nc3cc(N)ccc3o2)CC1 | 7.9 | 7380 nM | 9.21 ×10⁻⁶ cm/s | 927 nM | 
Nc1ccc2oc(N3CCN(C(=O)c4ccc(F)cc4)CC3)nc2c1 | 11.1 | 817 nM | 9.67 ×10⁻⁶ cm/s | 73 nM | 
Nc1ccc2oc(NC3CCN(Cc4ccccc4)CC3)nc2c1 | 4 | 2270 nM | 9.47 ×10⁻⁶ cm/s | 559 nM | 
Nc1ccc2oc(N3CCN(C(=O)c4cccc(F)c4)CC3)nc2c1 | 23.9 | 5540 nM | 9.51 ×10⁻⁶ cm/s | 231 nM | 
Nc1ccc2oc(N3CCN(Cc4ccc(Cl)cc4)CC3)nc2c1 | 5.1 | 3850 nM | 10.7 ×10⁻⁶ cm/s | 747 nM | 
